This note sets out measurements from US20250368666A1, “INDAZOLE COMPOUNDS” (TYRA BIOSCIENCES, INC., priority 2022, published 2025).

Assay [1] concerns HuH7 cell line (FGF19 amplification). Nature of the assay: Cancer cell line cell viability assay (Cell Titer-Glo), 120 hr. In kind it is cell-based. The following applies: Homo sapiens, Huh-7. A digest of the protocol: (§1)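 Intracellular ATP was measured by Cell Titer-Glo 2.0 luminescence after cells were incubated with compound dilutions (top 3 μM, 4-fold, 9 doses). Values were expressed relative to DMSO-treated cells and IC50 was calculated from a variable-slope dose-response curve.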
A general note: Cellular ATP, detected with luciferase, serves as a proxy for viable cell number.

Assay [2] has as its system RT112/84 cell line (FGFR3-fusion). As to the kind of experiment: Cancer cell line cell viability assay (Cell Titer-Glo), 72 hr. The following applies: Homo sapiens, RT112/84, RT112/84 cell line (FGFR3-fusion). The class given is cell-based. A digest of the protocol:
as §1

Assay [3] has as its system KG-1 cell line (FGFR 1-fusion). The description is as above. The class given is cell-based. The following applies: Homo sapiens, KG-1, KG-1 cell line (FGFR1-fusion). An outline of the steps:
as §1

Assay [4] concerns KATO-III cell line (FGFR2 amplification). The description is as above. In kind it is cell-based. The following applies: Homo sapiens, KATO III. A digest of the protocol:
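5,000-20,000 cells/well o/n; cpd 9-pt 4x dil from 3 μM, n=3; 37° C/5% CO2; CTG 2.0 lumi; % DMSO ctrl; 4PL IC50.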

In assay [5] the target is T1, FGFR2 (Homo sapiens, UniProt P21802).
T1 construct: made in house; host or cells: E. coli (BL21-derived), T7 phage
As to the kind of experiment: Kinase binding assay (kinase-tagged T7 phage, affinity beads, qPCR), Kd. Conditions: read-out: FGFR2 (Kd nM). An outline of the steps: (§2)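 Phage-tagged kinase capture on small-molecule affinity resin, compound competition, qPCR quantitation; Kd from Levenberg-Marquardt Hill fit.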
In general terms: Quantitative PCR measures a nucleic acid by following its amplification.

Assay [6] has as its target T2, FGFR3 (V555M) (Homo sapiens, UniProt P22607, V555M).
T2 construct: made in house; host or cells: E. coli (BL21-derived), T7 phage
Described as above. Conditions: V555M mutant; read-out: FGFR3 (V555M) (Kd nM). An outline of the steps: as §2

Assay [7] concerns the target T3, FGFR1 (Homo sapiens, UniProt P11362).
T3 construct: made in house; host or cells: E. coli (BL21-derived), T7 phage
Described as above. The following applies: read-out: FGFR1 (Kd nM). An outline of the steps: as §2

Assay [8] concerns the target T4, FGFR3 (Homo sapiens, UniProt P22607).
T4 construct: made in house; host or cells: E. coli (BL21-derived), T7 phage
Described as above. Conditions: read-out: FGFR3 (Kd nM). An outline of the steps:
as §2

Assay [9] addresses T5, FGFR4 (Homo sapiens, UniProt P22455).
T5 construct: made in house; host or cells: E. coli (BL21-derived), T7 phage
Described as above. The following applies: read-out: FGFR4 (Kd nM). An outline of the steps: as §2

T2 sequence (P22607 23-806 V555M): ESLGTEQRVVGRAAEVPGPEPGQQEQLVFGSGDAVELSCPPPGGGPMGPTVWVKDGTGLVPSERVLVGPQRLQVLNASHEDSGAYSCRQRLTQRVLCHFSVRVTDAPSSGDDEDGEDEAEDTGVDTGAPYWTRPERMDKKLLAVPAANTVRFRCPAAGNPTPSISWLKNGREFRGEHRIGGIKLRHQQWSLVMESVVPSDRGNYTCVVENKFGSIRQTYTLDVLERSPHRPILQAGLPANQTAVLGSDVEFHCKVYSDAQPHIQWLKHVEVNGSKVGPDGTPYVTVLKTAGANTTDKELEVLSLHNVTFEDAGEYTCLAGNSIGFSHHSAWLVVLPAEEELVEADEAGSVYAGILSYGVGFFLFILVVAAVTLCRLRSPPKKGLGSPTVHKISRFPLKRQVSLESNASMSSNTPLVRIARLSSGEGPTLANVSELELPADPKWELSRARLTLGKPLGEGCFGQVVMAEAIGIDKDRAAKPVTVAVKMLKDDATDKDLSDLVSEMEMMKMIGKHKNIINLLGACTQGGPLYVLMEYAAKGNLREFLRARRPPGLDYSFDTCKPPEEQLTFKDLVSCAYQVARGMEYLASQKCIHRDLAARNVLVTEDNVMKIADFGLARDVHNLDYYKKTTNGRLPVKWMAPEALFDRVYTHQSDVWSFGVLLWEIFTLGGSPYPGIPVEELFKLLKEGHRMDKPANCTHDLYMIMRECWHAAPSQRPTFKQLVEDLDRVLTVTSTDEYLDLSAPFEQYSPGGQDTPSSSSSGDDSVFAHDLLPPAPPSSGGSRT
T1 sequence (P21802 22-821): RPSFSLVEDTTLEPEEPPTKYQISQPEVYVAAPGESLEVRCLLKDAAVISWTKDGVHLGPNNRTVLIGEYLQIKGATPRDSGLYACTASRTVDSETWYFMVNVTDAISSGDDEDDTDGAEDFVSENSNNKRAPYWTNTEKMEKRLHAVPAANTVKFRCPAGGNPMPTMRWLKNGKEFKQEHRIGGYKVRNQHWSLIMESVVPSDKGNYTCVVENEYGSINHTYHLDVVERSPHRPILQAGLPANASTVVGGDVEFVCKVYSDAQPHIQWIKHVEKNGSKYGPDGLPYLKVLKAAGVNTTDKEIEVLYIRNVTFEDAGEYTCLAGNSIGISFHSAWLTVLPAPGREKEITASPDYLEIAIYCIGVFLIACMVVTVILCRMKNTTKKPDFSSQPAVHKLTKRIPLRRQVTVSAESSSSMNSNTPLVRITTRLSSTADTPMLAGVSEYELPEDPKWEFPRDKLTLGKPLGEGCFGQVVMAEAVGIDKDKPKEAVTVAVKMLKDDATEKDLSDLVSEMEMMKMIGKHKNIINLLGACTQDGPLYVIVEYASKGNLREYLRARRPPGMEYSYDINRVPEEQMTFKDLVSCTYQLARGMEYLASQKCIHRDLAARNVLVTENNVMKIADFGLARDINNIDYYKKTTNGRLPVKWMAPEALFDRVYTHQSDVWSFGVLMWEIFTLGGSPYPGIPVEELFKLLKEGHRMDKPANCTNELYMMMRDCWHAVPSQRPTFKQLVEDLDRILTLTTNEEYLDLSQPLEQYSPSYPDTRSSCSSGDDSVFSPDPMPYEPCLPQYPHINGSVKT
T5 sequence (P22455 22-802): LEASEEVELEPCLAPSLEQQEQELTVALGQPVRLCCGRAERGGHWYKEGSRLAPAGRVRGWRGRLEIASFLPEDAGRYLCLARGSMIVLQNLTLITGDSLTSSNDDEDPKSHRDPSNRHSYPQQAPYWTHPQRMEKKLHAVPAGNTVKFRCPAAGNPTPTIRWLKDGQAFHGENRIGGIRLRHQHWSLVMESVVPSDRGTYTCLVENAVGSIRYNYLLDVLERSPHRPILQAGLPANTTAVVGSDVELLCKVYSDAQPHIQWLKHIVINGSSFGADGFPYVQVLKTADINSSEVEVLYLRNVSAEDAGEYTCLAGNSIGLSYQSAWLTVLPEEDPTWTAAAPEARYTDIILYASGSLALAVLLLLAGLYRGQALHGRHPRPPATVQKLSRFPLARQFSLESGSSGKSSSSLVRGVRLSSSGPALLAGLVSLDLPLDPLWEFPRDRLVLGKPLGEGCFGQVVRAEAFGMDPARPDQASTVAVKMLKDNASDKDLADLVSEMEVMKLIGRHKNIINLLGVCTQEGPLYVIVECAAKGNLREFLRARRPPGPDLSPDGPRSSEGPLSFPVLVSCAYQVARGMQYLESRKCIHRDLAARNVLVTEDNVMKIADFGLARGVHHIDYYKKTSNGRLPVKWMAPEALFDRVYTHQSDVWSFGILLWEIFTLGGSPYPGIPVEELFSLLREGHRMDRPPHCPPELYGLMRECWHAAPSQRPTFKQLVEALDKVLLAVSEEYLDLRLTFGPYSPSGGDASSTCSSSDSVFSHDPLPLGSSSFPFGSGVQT
T3 sequence (P11362 22-822): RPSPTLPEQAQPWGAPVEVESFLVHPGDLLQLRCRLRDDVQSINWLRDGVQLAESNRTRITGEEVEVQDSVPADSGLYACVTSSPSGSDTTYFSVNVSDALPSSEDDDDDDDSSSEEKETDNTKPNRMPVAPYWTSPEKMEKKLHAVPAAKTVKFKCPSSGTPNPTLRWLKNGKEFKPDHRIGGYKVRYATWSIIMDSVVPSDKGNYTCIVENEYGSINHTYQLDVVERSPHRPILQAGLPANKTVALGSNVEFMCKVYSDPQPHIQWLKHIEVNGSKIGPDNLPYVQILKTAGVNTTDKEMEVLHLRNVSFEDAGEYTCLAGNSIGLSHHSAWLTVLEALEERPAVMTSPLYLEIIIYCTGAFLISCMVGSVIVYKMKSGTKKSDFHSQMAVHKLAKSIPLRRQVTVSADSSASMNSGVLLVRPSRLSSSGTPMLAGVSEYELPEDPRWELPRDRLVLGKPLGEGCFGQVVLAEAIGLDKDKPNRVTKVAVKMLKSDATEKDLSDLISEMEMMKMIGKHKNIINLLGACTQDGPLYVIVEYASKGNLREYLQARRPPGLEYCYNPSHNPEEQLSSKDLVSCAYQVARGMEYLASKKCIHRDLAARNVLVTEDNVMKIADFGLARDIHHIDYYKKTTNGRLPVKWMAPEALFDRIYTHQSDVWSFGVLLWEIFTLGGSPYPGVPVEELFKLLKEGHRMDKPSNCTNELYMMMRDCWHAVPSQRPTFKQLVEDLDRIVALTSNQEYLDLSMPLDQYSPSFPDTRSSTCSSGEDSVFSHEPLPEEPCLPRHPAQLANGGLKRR
T4 sequence (P22607 23-806): as the sequence (P22607 23-806 V555M) above, with M533V counted along it

The term IC50 denotes the concentration that gives 50% inhibition. A low value points to inhibition by little substance. A word on the Kd: it is the concentration at which binding is half-saturated. For `COc1cc2[nH]nc(-c3cnc(N4CC(C)(NCCO)C4)c(C#N)c3)c2cc1O[C@H](C)c1c(Cl)cncc1Cl` [Example 47, 5-[5-[(1R)-1-(3,5-dichloro-4-pyridyl)ethoxy]-6-methoxy-1H-indazol-3-yl]-2-[3-(2-hydroxyethylamino)-3-methyl-azetidin-1-yl]pyridine-3-carbonitrile], the concentration for half-maximal inhibition (IC50) in [1] was in the range of 0.1 to 50 nM; in assay [2], 50 to 200 nM; in assay [3] it was 200 to 1000 nM; in [4], 50 to 200 nM. The Kd in assay [5], in [6], in [7], in assay [8] and in assay [9] was 1 to 50 nM each time.

On to `COc1cc2[nH]nc(-c3cnc(N4CC(C)(NCC5(O)CC5)C4)c(C#N)c3)c2cc1O[C@H](C)c1c(Cl)cncc1Cl` [Example 105], for which the IC50 in [1] was in the range of 0.1 to 50 nM; in [2], 0.1 to 50 nM; in assay [3], 50 to 200 nM; in assay [4], 50 to 200 nM. Further, the Kd in [5], in [6], in [7], in assay [8] and in assay [9] was 1 to 50 nM each time.

For `COc1cc2[nH]nc(-c3cnc(N4CC(C)(NCCC(F)F)C4)c(C#N)c3)c2cc1O[C@H](C)c1c(Cl)cncc1Cl` [Example 41, 5-[5-[(1R)-1-(3,5-dichloro-4-pyridyl)ethoxy]-6-methoxy-1H-indazol-3-yl]-2-[3-(3,3-difluoropropylamino)-3-methyl-azetidin-1-yl]pyridine-3-carbonitrile], the IC50 in assay [1] was in the range of 0.1 to 50 nM; in assay [2], 0.1 to 50 nM; in assay [3] it was 50 to 200 nM; in assay [4] it was 50 to 200 nM. Besides, the Kd in assay [5], in assay [6], in assay [7], in assay [8] and in assay [9] was 1 to 50 nM in each case.

For the molecule `COc1cc2[nH]nc(-c3cnc(N4CC(N)(CC#N)C4)c(C#N)c3)c2cc1O[C@H](C)c1c(Cl)cncc1Cl` [Example 345, 2-[3-amino-3-(cyanomethyl)azeti-din-1-yl]-5-[5-[(1R)-1-(3,5-dichloro-4-pyridyl)ethoxy]-6-methoxy-1H-indazol-3-yl]pyridine-3-carbonitrile], the IC50 in assay [1] fell in the range of 0.1 to 50 nM; in assay [2], 0.1 to 50 nM; in assay [3] it was 50 to 200 nM; in assay [4], 0.1 to 50 nM. The Kd in [5], in [7], in [8] and in [9] was 1 to 50 nM each time.

`COc1cc2[nH]nc(-c3cnc(N4CC(N)(CC(C)(C)O)C4)c(C#N)c3)c2cc1O[C@H](C)c1c(Cl)cncc1Cl` [Example 361, (R)-2-(3-amino-3-(2-hydroxy-2-methylpropyl)azetidin-1-yl)-5-(5-(1-(3,5-dichloropyridin-4-yl)ethoxy)-6-methoxy-1H-indazol-3-yl)nicotinonitrile]: the IC50 is 50 to 200 nM in [1], 50 to 200 nM in [2], 200 to 1000 nM in assay [3] and 50 to 200 nM in assay [4]. Besides, the Kd in [5], in [7], in [8] and in assay [9] was 1 to 50 nM each time.

As to `COc1cc2[nH]nc(-c3cnc(N4CC(N)(CC(C)C)C4)c(C#N)c3)c2cc1O[C@H](C)c1c(Cl)cncc1Cl` [Example 357, (R)-2-(3-amino-3-isobutylazetidin-1-yl)-5-(5-(1-(3,5-dichloropyridin-4-yl)ethoxy)-6-methoxy-1H-indazol-3-yl)nicotinonitrile], the IC50 in [1] was 0.1 to 50 nM; in assay [2], 50 to 200 nM; in assay [3], 50 to 200 nM; in assay [4] it was 50 to 200 nM. In addition, the Kd in assay [5], in assay [7], in [8] and in assay [9] was 1 to 50 nM throughout.

For `CCCC1(N)CN(c2ncc(-c3n[nH]c4cc(OC)c(O[C@H](C)c5c(Cl)cncc5Cl)cc34)cc2C#N)C1` [Example 360, (R)-2-(3-amino-3-propylazetidin-1-yl)-5-(5-(1-(3,5-dichloropyridin-4-yl)ethoxy)-6-methoxy-1H-indazol-3-yl)nicotinonitrile], the IC50 in assay [1] was 0.1 to 50 nM; in assay [2] it was 0.1 to 50 nM; in assay [3] it was 50 to 200 nM; in [4] it was 50 to 200 nM. Besides, the Kd in [5], in assay [7], in assay [8] and in [9] was 1 to 50 nM throughout.

For the molecule `COc1cc2[nH]nc(-c3cnc(N4CC(N)(CCS(C)(=O)=O)C4)c(C#N)c3)c2cc1O[C@H](C)c1c(Cl)cncc1Cl` [Example 364, (R)-2-(3-amino-3-(2-(methylsulfonyl)ethyl)azetidin-1-yl)-5-(5-(1-(3,5-dichloropyridin-4-yl)ethoxy)-6-methoxy-1H-indazol-3-yl)nicotinonitrile], the IC50 was 0.1 to 50 nM in assay [1], 50 to 200 nM in assay [2], > 1000 nM in assay [3] and 50 to 200 nM in [4]. In addition, the Kd in assay [5], in assay [7], in assay [8] and in assay [9] was 1 to 50 nM in each case.

For the molecule `COc1cc2[nH]nc(-c3cnc(N4CC(CC#N)(NCC5CC5)C4)c(C#N)c3)c2cc1O[C@H](C)c1c(Cl)cncc1Cl` [Example 346, (R)-2-(3-(cyanomethyl)-3-((cyclo-propylmethyl)-amino)azetidin-1-yl)-5-(5-(1-(3,5-dichloropyridin-4-yl)ethoxy)-6-methoxy-1H-indazol-3-yl)nicotinonitrile], the IC50 in assay [1] lay in the range of 0.1 to 50 nM; in assay [2] it was 0.1 to 50 nM; in [3] it was 50 to 200 nM; in assay [4] it was 0.1 to 50 nM. Besides, the dissociation constant (Kd) in [5], in [7], in assay [8] and in assay [9] was 1 to 50 nM throughout.

On to `COc1cc2[nH]nc(-c3cnc(N4CC(C)(N(C)CC5CC5)C4)c(C#N)c3)c2cc1O[C@H](C)c1c(Cl)cncc1Cl` [Example 344, (R)-2-(3-((cyclopropyl-methyl) (methyl)amino)-3-methylazetidin-1-yl)-5-(5-(1-(3,5-dichloropyridin-4-yl)ethoxy)-6-methoxy-1H-indazol-3-yl)nicotinonitrile], for which the IC50 in assay [1] lay within 0.1 to 50 nM; in [2], 0.1 to 50 nM; in assay [3], 200 to 1000 nM; in assay [4], 50 to 200 nM. Also, the Kd in assay [5], in assay [7], in [8] and in [9] was 1 to 50 nM each time.

For the molecule `COc1cc2[nH]nc(-c3cnc(N4CC(N)(C(C)C)C4)c(C#N)c3)c2cc1O[C@H](C)c1c(Cl)cncc1Cl` [Example 353, (R)-2-(3-amino-3-isopropylazetidin-1-yl)-5-(5-(1-(3,5-dichloropyridin-4-yl)ethoxy)-6-methoxy-1H-indazol-3-yl)nicotinonitrile], the IC50 in [1] lay within 0.1 to 50 nM; in assay [2], 0.1 to 50 nM; in [3] it was 50 to 200 nM; in assay [4], 50 to 200 nM. Further, the Kd in assay [5], in [7], in assay [8] and in assay [9] was 1 to 50 nM throughout.

With `CNC1(CC#N)CN(c2ncc(-c3n[nH]c4cc(OC)c(O[C@H](C)c5c(Cl)cncc5Cl)cc34)cc2C#N)C1` [Example 153, (R)-2-(3-(cyanomethyl)-3-(methylamino)azetidin-1-yl)-5-(5-(1-(3,5-dichloropyridin-4-yl)ethoxy)-6-methoxy-1H-indazol-3-yl)nicotinonitrile], the IC50 in [1] is 0.1 to 50 nM; in assay [2], 0.1 to 50 nM; in assay [3] it was 50 to 200 nM; in [4] it was 0.1 to 50 nM. For the same molecule, the Kd in [5], in [7], in assay [8] and in assay [9] was 1 to 50 nM in each case.

With `C=CCC1(N)CN(c2ncc(-c3n[nH]c4cc(OC)c(O[C@H](C)c5c(Cl)cncc5Cl)cc34)cc2C#N)C1` [Example 362, (R)-2-(3-ally1-3-aminoazetidin-1-yl)-5-(5-(1-(3,5-dichloropyridin-4-yl)ethoxy)-6-methoxy-1H-indazol-3-yl)nicotinonitrile], the IC50 in assay [1] is 0.1 to 50 nM; in assay [2] it was 0.1 to 50 nM; in [3], 50 to 200 nM; in assay [4], 50 to 200 nM. Moreover, the Kd in assay [5], in assay [7], in assay [8] and in [9] was 1 to 50 nM throughout.
